Measured values published in US5852011A, “Benzimidazole derivatives” (Mitsui Chemicals, Inc., priority 1994, dated 1998).
Where a name gives a salt, the structure may show the parent alone.

Test system: mouse B16 melanoma cells
Assay: In vitro inhibition of proliferation of tumored cells, mouse B16 melanoma (Test 2)
Type: cell-based
Conditions: 3 days in 5% CO2 at 37° C., 96-well plate
Description: A description will next be made of antitumor activities of these compounds. Their antitumor activities were determined by measuring their in vitro inhibition of proliferation of tumored cells. Namely, mouse B16 melanoma cells were spread over a 96-well culture plate. One day later, each drug was applied. The melanoma cells were then incubated for 3 days in 5% CO2 at 37° C. Following the method reported in Cancer Res., 48, 589-601(1988), the concentration of the drug required to induce 50% inhibition on the proliferation was determined. As a comparative example, the results obtained from the application of distamycin are also shown.

Row | SMILES | 50% Inhibition [µg/mL]
1 | Cn1cc(NC(=O)CC[S+](C)C)cc1-c1nc2cc(C(=O)Nc3ccc(N(CCCl)CCCl)c(F)c3)ccc2[nH]1 [1076 (Cl' salt), 2-[N-[1-Methyl-2-[5-[N-[3-fluoro-4-[N,N-bis(2-chloroethyl)amino]phenyl]]carbamoyl]-1H-benzimidazol-2-ylpyrrol-4-yl]carbamoylethyl-dimethylsulfonium chloride] | 0.45
2 | Cn1cc(NC(=O)CCc2ccc(N(CCCl)CCCl)cc2)cc1-c1nc2cc(C(=O)NCCC(=N)N)ccc2[nH]1 [Compound 3, 1H-2-[4-[3-[4-[N,N-Bis(2-chloroethyl)amino]phenyl]propionylamino]-1-methylpyrrol-2-yl]benzimidazole-5-[N-(2-amidinoethyl)]carboxamide hydrochloride] | 0.019
3 | Cn1cc(NC(=O)c2ccc(CN(CCCl)CCCl)cc2)cc1-c1nc2cc(C(=O)NCCC(=N)N)ccc2[nH]1 [Compound 14, 1H-2-[4-[4-[N,N-Bis(2-chloroethyl)aminomethyl]benzoylamino]-1-methylpyrrol-2-yl]benzimidazole-5-(N-(2-amidinoethyl)]carboxamide hydrochloride] | 0.57
4 | Cn1cc(NC(=O)c2cccc(N(CCCl)CCCl)c2)cc1-c1nc2cc(C(=O)NCCC(=N)N)ccc2[nH]1 [Compound 15, 1H-2-[4-[3-[N,N-bis(2-chloroethyl)amino]benzoylamino]-1-methylpyrrol-2-yl]benzimidazole-5-[N-(2-amidinoethyl)]carboxamide hydrochloride] | 0.057
5 | Cn1cc(NC(=O)c2ccc(N(CCCl)CCCl)cc2)cc1-c1nc2cc(C(=O)NCCN)ccc2[nH]1 [Compound 129, 1H-2-[4-[4-[N,N-Bis(2-chloroethyl)amino]benzoylamino]-1-methylpyrrol-2-yl]benzimidazole-5-[N-(2-aminoethyl)]carboxamide hydrochloride] | 0.18
6 | Cn1cc(NC(=O)c2ccc(N(CCCl)CCCl)cc2)cc1-c1nc2cc(C(=O)NCc3cccnc3)ccc2[nH]1 [Compound 223, 1H-2-[4-[4-[N,N-Bis(2-chloroethyl)amino]benzoylamino]-1-methylpyrrol-2-yl]benzimidazole-5-[N-(3-picolyl)]carboxamide hydrochloride] | 1.1
7 | Cn1cc(NC(=O)c2ccc(N(CCCl)CCCl)cc2)cc1-c1nc2cc(C(=O)NCc3ccc[n+](C)c3)ccc2[nH]1 [Compound 247, 3-[[1H-2-[4-[4-[N,N-Bis(2-chloroethyl)amino]-benzoylamino]-1-methylpyrrol-2-yl]benzimidazole-5-carboxamido]methyl]-1-methylpyridinium chloride] | 2.6
8 | Cn1cc(NC(=O)c2ccc(N(CCBr)CCBr)cc2)cc1-c1nc2cc(C(=O)NCCC(=N)N)ccc2[nH]1 [Compound 260, 1H-2-[4-[4-[N,N-Bis(2-bromoethyl)amino]benzoylamino]-1-methylpyrrol-2-yl]benzimidazole-5-[N-(2-amidinoethyl)]carboxamide hydrochloride] | 0.034
9 | CCCCNC(=O)c1ccc2[nH]c(-c3cc(NC(=O)c4ccc(N(CCCl)CCCl)cc4)cn3C)nc2c1 [Compound 336, 1H-2-[4-[4-[N,N-Bis(2-chloroethyl)amino]benzoylamino]-1-methylpyrrol-2-yl]benzimidazole-5-(N-butyl)carboxamide] | 0.24
10 | N=C(N)CCNC(=O)c1ccc2[nH]c(-c3csc(NC(=O)CCCc4ccc(N(CCCl)CCCl)cc4)c3)nc2c1 [Compound 424, 1H-2-[2-[4-[4-[N,N-Bis(2-chloroethyl)amino]phenyl]butyrylamino]thiophen-4-yl]benzimidazole-5-[N-(2-amidinoethyl)]carboxamide hydrochloride] | 0.08
11 | Cn1cc(NC(=O)CNC(=N)N)cc1-c1nc2cc(C(=O)NCCCc3ccc(N(CCCl)CCCl)cc3)ccc2[nH]1 [Compound 1004, 1H-2-[4-(2-Guanidinoacetylamino)-1-methylpyrrol-2-yl]benzimidazole-5-[N-[3-[4-[N,N-bis(2-chloroethyl)amino]phenyl]propyl]]carboxamide hydrochloride] | 0.047
12 | CN(C)CCNC(=O)c1cc(N(CCCl)CCCl)ccc1NC(=O)c1ccc2[nH]c(-c3cc(NC(=O)CNC(=N)N)cn3C)nc2c1 [Compound 1042, 1H-2-[1-Methyl-4-(guanidinoacetylamino)pyrrol-2-yl]benzimidazole-5-[N-[2-[N-[(N,N-dimethylamino)ethyl]carboxamido]-4-[N,N-bis(2-chloroethyl)amino]phenyl]]carboxamide dihydrochloride] | 3.49
13 | Cn1cc(NC(=O)CNC(=N)N)cc1-c1nc2cc(C(=O)Nc3cccc(N(CCCl)CCCl)c3)ccc2[nH]1 [Compound 1047, 1H-2-[1-Methyl-4-(guanidinoacetylamino)pyrrol-2-yl]benzimidazole-5-[N-[3-[N,N-bis(2-chloroethyl)amino]phenyl]]carboxamide dihydrochloride] | 0.0946
14 | Cn1cc(NC(=O)CC[S+](C)C)cc1-c1nc2cc(C(=O)Nc3ccc(N(CCCl)CCCl)c(Cl)c3)ccc2[nH]1 [Compound 1072, 2-[N-[1-Methyl-2-[5-[N-[3-chloro-4-[N,N-bis(2-chloroethyl)amino]phenyl]]carbamoyl]-1H-benzimidazol-2-yl]pyrrol-4-yl]carbamoylethyl-dimethylsulfonium chloride] | 0.51
15 | Cn1cc(NC(=O)CC[S+](C)C)cc1-c1nc2cc(C(=O)Nc3ccc(N(CCCl)CCCl)c(C(F)(F)F)c3)ccc2[nH]1 [Compound 1077, 2-[N-[1-Methyl-2-[5-[N-[3-trifluoromethyl-4-[N,N-bis(2-chloroethyl)amino]phenyl]]carbamoyl]-1H-benzimidazol-2-yl]pyrrol-4-yl]carbamoylethyl-dimethylsulfonium chloride] | 0.29

Same assay, conditions: Mus musculus, B16, 72 h, read-out: 50% Inhibition

Row | SMILES | IC50 [µg/mL]
16 | CCN(CCCl)c1ccc(NC(=O)c2ccc3[nH]c(-c4cc(NC(=O)CNC(=N)N)cn4C)nc3c2)cc1 [Compound 1048, 1H-2-[1-Methyl-4-(2-guanidinoacetylamino)pyrrol-2-yl]benzimidazol-5-[N-[4-[N-ethyl,N-(2-chloroethyl)amino]phenyl]]carboxamide dihydrochloride] | 5.58
17 | CCN(CCCl)c1cccc(NC(=O)c2ccc3[nH]c(-c4cc(NC(=O)CNC(=N)N)cn4C)nc3c2)c1 [Compound 1049, 1H-2-[1-Methyl-4-(guanidinoacetylamino)pyrrol-2-yl]benzimidazol-5-[N-[3-[N-ethyl,N-(2-chloroethyl)amino]phenyl]]carboxamide hydrochloride] | 0.274

Same assay, conditions: Mus musculus, B16, 72 h; 3 days in 5% CO2 at 37° C., 96-well plate; read-out: 50% Inhibition

Row | SMILES | IC50 [µg/mL]
18 | Cn1cc(NC(=O)CCCCCBr)cc1-c1nc2cc(C(=O)NCCC(=N)N)ccc2[nH]1 [Compound 16, hydrochloride] | 0.6
19 | Cn1cc(NC(=O)c2ccccc2)cc1-c1nc2cc(C(=O)NCCC(=N)N)ccc2[nH]1 [Compound 326, 1H-2-(4-Benzoylamino-1-methylpyrrol-2-yl)benzimidazole-5-[N-(2-amidinoethyl)]carboxamide hydrochloride] | 12
20 | N=C(N)CCNC(=O)c1ccc2[nH]c(-c3csc(NC(=O)c4ccccc4)c3)nc2c1 [Compound 438, 1H-2-(2-Benzoylaminothiophen-4-yl)benzimidazole-5-[N-(2-amidinoethyl)]carboxamide hydrochloride] | 42.8
